Measurements reported in ChEMBL document CHEMBL5335832, “Cavomycins A-C, Linear Oligomer Depsipeptides from an Annelid-Associated Streptomyces cavourensis” (J Nat Prod, 2024).
Calls of active or inactive are those of the source. The calls are words filed in the database; no cut-off is given here.

What was measured:
PANC-1 [1] = assay: Antiproliferative activity against human PANC-1 cells assessed as inhibition of cell growth incubated for 72 hrs by MTT assay; type: functional, cell-based; settings: PANC-1, 72 h
PANC-1 [2] = assay: Antiproliferative activity against human PANC-1 cells assessed as inhibition of cell growth at 20 to 100 uM incubated for 72 hrs by MTT assay; type: functional, cell-based; settings: dose 20-100 µM

Row | SMILES | IC50 (PANC-1 [1]) | Activity (PANC-1 [2])
1 | CC(C)[C@H](NC(=O)[C@H](C)O)C(=O)O[C@@H](C(=O)N[C@@H](C(=O)O[C@@H](C)C(=O)N[C@H](C(=O)O[C@@H](C(=O)N[C@@H](C(=O)O[C@@H](C)C(=O)N[C@H](C(=O)O[C@@H](C(=O)N[C@@H](C(=O)O)C(C)C)C(C)C)C(C)C)C(C)C)C(C)C)C(C)C)C(C)C)C(C)C | 1200 nM | –
2 | CC(C)[C@H](NC(=O)[C@H](C)OC(=O)[C@H](NC(=O)[C@H](OC(=O)[C@@H](NC(=O)[C@H](C)OC(=O)[C@H](NC(=O)[C@H](OC(=O)[C@@H](NC(=O)[C@H](C)O)C(C)C)C(C)C)C(C)C)C(C)C)C(C)C)C(C)C)C(=O)O | – | inactive
3 | CC(C)[C@H](NC(=O)[C@H](C)OC(=O)[C@H](NC(=O)[C@H](OC(=O)[C@@H](NC(=O)[C@H](C)OC(=O)[C@H](NC(=O)[C@H](OC(=O)[C@@H](NC(=O)[C@H](C)OC(=O)[C@@H](NC(=O)[C@H](C)O)C(C)C)C(C)C)C(C)C)C(C)C)C(C)C)C(C)C)C(C)C)C(=O)O | – | inactive
4 | COC(=O)[C@H](NC(=O)[C@H](OC(=O)[C@@H](NC(=O)[C@H](C)OC(=O)[C@H](NC(=O)[C@H](OC(=O)[C@@H](NC(=O)[C@H](C)OC(=O)[C@H](NC(=O)[C@H](OC(=O)[C@@H](NC(=O)[C@H](C)O)C(C)C)C(C)C)C(C)C)C(C)C)C(C)C)C(C)C)C(C)C)C(C)C)C(C)C | 1700 nM | –
